Assay results as given in patent publication EP0284686A1, “Condensed triazoles, their preparation and their use as medicines” (BEECHAM GROUP PLC, priority 1986, dated 1988).

Legend:
[1] = target: T1, RBL-1 5-lipoxygenase (Rattus norvegicus, UniProt P12527); assay: RBL-1 5-lipoxygenase screen; type: biochemical; conditions: 10,000g supernatant from RBL-1 cells, formation of 5-HETE and 5,12-diHETE from [1-14C] arachidonic acid, read-out: Percentage inhibition of RBL-1 5-lipoxygenase at 20µM
T1 construct: 5-Lipoxygenase enzyme was prepared as a 10,000g supernatant from RBL-1 cells; endogenous in cells; host or cells: RBL-1 cells (10,000g supernatant of homogenate)
T1 sequence (P12527 1-673): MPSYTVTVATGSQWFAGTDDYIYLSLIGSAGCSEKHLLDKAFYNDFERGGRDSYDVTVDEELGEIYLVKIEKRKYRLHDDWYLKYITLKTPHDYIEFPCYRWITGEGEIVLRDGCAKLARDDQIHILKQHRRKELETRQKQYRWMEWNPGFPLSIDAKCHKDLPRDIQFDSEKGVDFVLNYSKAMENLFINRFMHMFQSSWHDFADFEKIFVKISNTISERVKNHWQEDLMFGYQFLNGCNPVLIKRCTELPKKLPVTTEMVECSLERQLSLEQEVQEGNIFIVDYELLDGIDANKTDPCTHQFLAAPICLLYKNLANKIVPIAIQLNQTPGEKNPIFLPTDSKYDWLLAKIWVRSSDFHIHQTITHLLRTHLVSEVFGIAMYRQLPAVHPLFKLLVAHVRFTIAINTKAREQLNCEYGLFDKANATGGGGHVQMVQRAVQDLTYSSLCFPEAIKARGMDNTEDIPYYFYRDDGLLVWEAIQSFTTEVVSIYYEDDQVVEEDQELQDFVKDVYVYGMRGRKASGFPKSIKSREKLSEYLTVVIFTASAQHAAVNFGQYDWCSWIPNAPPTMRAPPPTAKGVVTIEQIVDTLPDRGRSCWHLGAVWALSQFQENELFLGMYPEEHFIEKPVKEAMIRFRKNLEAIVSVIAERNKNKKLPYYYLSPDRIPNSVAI
Protocol: 5-Lipoxygenase enzyme was prepared as a 10,000g supernatant from RBL-1 cells by the method of Jakschik (Jakschik, B.A., F.F. Sun, L.M.Lee, and M.M. Steinhoff, 1980, Biochem. Biophys. Res.Comm. 95 103). The 10,000g supernatant was diluted with homogenization buffer to the equivalent of 1.5 - 2.5 × 10⁷ cells. ml.⁻¹ and made 2mM with respect to CaCl₂. Aliquots of 0.5ml were then dispensed into tubes, and incubated at 29°C with 5µl ethanol or compound in ethanol at the desired concentration for 2min. Then [1-¹⁴C] arachidonic acid was added in buffer to give a final concentration of 6.3µM and 0.2µCi per incubation, and the reaction continued at 29°C for 2min. The reaction was terminated by adding 1ml of acetone and cooling on ice, 0.5ml of ice-cold saline and 100µl of 2N formic acid were added, and the mixture was extracted with 2 × 2ml of chloroform. The extract was stored under N₂ at -20°C until analysis by chromatography. Activity was measured as the percentage of total radioactivity found in 5-HETE and 5,12-diHETE, and inhibition calculated as the decrease in formation of the sum of these two species in compound-treated incubates relative to control incubations.

[2] = system: passive peritoneal anaphylaxis; assay: Rat passive peritoneal anaphylaxis (PPA); type: in vivo; conditions: i.p., final concentration 2×10⁻⁴M, contact time 2½ minutes
Protocol: The method is essentially similar to that described previously by Ross et al (Ross, Janet W., Smith, H. and Spicer, Barbara A. Increased vascular permeability during passive peritoneal anaphylaxis in the rat. Int. Arch. Allergy appl. Immun. 51, 226, 1976.)
Charles River Sprague Dawley male rats of 225-275 g and Dunkin Hartley male white guinea pigs of 250-300 g were used.
Charles River Sprague Dawley male rats of 225 - 275 g were given intraperitoneal injections of 0.5 ml of either Bordetella pertussis vaccine (4 × 10¹⁰ organisms/ml; Burroughs Wellcome, London) or Pertussis vaccine absorbed (not less than 41.u. B. pertussis antigen with aluminium hydroxide; The Lister Institute Elstree, England), and subcutaneous injections of 0.5ml of an emulsion of 100 mg of ovalbumin (chicken egg albumin; crystallised and lyophilised, grade V, Sigma, London) in 2ml of isotonic saline and 3ml of incomplete Freund's adjuvant. The rats were bled by cardiac puncture on day 18, the blood was pooled and the serum separated, stored at -20°C and thawed only once before use. The serum produced 72 hour passive cutaneous anaphylaxis activity in recipient rats to a dilution of 1:64 to 1:32 which was decreased to a dilution of less than 1:2 by heating at 56°C for 4 hours.
Rats were given intraperitoneal injections of 2 ml of a 1:5 dilution of the rat anti-serum in isotonic saline. Two hours later 0.3ml of 5% solution of Pontamine Sky Blue (Raymond A. Lamb, London) in isotonic saline was injected intraveneously, followed by an intraperitoneal injection of the test compound in 1 ml of saline; (control rats received 1 ml of saline); followed 2.5 minutes later by an intraperitoneal injection of 5 ml of a Tyrode solution containing 50µg/ml heparin and 0.4 mg/ml of ovalbumin. The concentrations of the compounds were quoted as that in the 6 ml of fluid injected intraperitoneally. […]
The optical densities (OD) of the supernatants which were not contaminated with blood were determined immediately at 625nm. […]

Compound | inhibition at 20 µM [1] [%] | Percentage inhibition SRS-A ([2]; SRS-A in peritoneal fluid assayed on guinea pig ileum) | Percentage inhibition Dye ([2]; dye in peritoneal fluid (OD 625nm)) | Percentage inhibition Histamine ([2]; histamine in peritoneal fluid)
Cc1ccc(O)c2c1nnn2Cc1ccccc1 [Example 1, 3-Benzyl-4-hydroxy-7-methylbenzotriazole] | 89 |  |  | 
Cc1ccc(O)c2nn(Cc3ccccc3)nc12 [Example 2, 2-Benzyl-4-hydroxy-7-methylbenzotriazole] | 81 | 49 | 30 | 45
